From PubChem BioAssay AID192 (DTP/NCI, 2004)
Values joined by “and” are separate entries in the source; they are usually repeats but may differ in a detail not shown here. Identical values can stand only once. Inconclusive results and toxic doses are left out.

Test system: BDF1 mice, B16 melanoma ip, median survival T/C
Assay: NCI In Vivo Anticancer Drug Screen. Data for tumor model B16 Melanoma (intraperitoneal) in B6D2F1 (BDF1) mice
Details: endpoint: median survival time, higher = longer survival
Procedure, shortened: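 Survival or tumor size is measured after treatment of tumor-bearing mice and normalised to the vehicle-treated control group.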

[1] = dose: 6.25 mg/kg/injection, schedule: Q01DX009 (ip), vehicle: saline with Tween-80
[2] = dose: 12.5 mg/kg/injection, schedule: Q01DX009 (ip), vehicle: saline with Tween-80
[3] = dose: 25.0 mg/kg/injection, schedule: Q01DX009 (ip), vehicle: saline with Tween-80
[4] = dose: 50.0 mg/kg/injection, schedule: Q01DX009 (ip), vehicle: saline with Tween-80
[5] = dose: 100.0 mg/kg/injection, schedule: Q01DX009 (ip), vehicle: saline with Tween-80
[6] = dose: 6.25 mg/kg/injection, schedule: Q01DX009 (ip), vehicle: Klucel (hydroxypropylcellulose) (HPC)
[7] = dose: 100.0 mg/kg/injection, schedule: Q01DX009 (ip), vehicle: Klucel (hydroxypropylcellulose) (HPC)
[8] = dose: 200.0 mg/kg/injection, schedule: Q01DX009 (ip), vehicle: Klucel (hydroxypropylcellulose) (HPC)
[9] = dose: 400.0 mg/kg/injection, schedule: Q01DX009 (ip), vehicle: Klucel (hydroxypropylcellulose) (HPC)
[10] = dose: 25.0 mg/kg/injection, schedule: Q01DX009 (ip), vehicle: saline
[11] = dose: 50.0 mg/kg/injection, schedule: Q01DX009 (ip), vehicle: saline
[12] = dose: 100.0 mg/kg/injection, schedule: Q01DX009 (ip), vehicle: saline
[13] = dose: 200.0 mg/kg/injection, schedule: Q01DX009 (ip), vehicle: saline with Tween-80
[14] = dose: 400.0 mg/kg/injection, schedule: Q01DX009 (ip), vehicle: saline with Tween-80
[15] = dose: 12.5 mg/kg/injection, schedule: Q01DX009 (ip), vehicle: saline
[16] = dose: 6.25 mg/kg/injection, schedule: Q01DX009 (ip), vehicle: water
[17] = dose: 12.5 mg/kg/injection, schedule: Q01DX009 (ip), vehicle: water
[18] = dose: 12.5 mg/kg/injection, schedule: Q01DX009 (ip), vehicle: Klucel (hydroxypropylcellulose) (HPC)
[19] = dose: 25.0 mg/kg/injection, schedule: Q01DX009 (ip), vehicle: Klucel (hydroxypropylcellulose) (HPC)
[20] = dose: 50.0 mg/kg/injection, schedule: Q01DX009 (ip), vehicle: Klucel (hydroxypropylcellulose) (HPC)

OC1CCCC2CCCNC12 (configuration not stated)
T/C (dose: 3.12 mg/kg/injection, schedule: Q01DX009 (ip), vehicle: saline with Tween-80): 100 % of control
T/C [1]: 108 % of control
T/C [2]: 99 % of control
T/C [3]: 96 % of control
T/C [4]: 96 % of control

NC(Cc1ccc(O)cc1)C(=O)N/N=C/c1ccc(N(CCCl)CCCl)cc1 (configuration not stated)
T/C (dose: 15.0 mg/kg/injection, schedule: Q01DX009 (ip), vehicle: Klucel (hydroxypropylcellulose) (HPC)): 115 % of control
T/C (dose: 30.0 mg/kg/injection, schedule: Q01DX009 (ip), vehicle: Klucel (hydroxypropylcellulose) (HPC)): 120 % of control

CC(=O)Nc1ccc([N+](=O)[O-])cc1
T/C (dose: 12.5 mg/kg/injection, schedule: Q01DX009 (ip), vehicle: alcohol): 95 % of control
T/C (dose: 25.0 mg/kg/injection, schedule: Q01DX009 (ip), vehicle: alcohol): 102 % of control
T/C (dose: 50.0 mg/kg/injection, schedule: Q01DX009 (ip), vehicle: alcohol): 93 % of control
T/C [5]: 88 % of control

COc1ccccc1N1CCN(CCc2c[nH]c3cc4c(cc23)OCO4)CC1
T/C (dose: 1.56 mg/kg/injection, schedule: Q01DX009 (ip), vehicle: Klucel (hydroxypropylcellulose) (HPC)): 89 % of control
T/C [6]: 89 % of control

CN1CCN(CCCN2c3ccccc3Sc3ccc(Cl)cc32)CC1
T/C (dose: 0.19 mg/kg/injection, schedule: Q01DX009 (ip), vehicle: saline): 111 % of control
T/C (dose: 0.39 mg/kg/injection, schedule: Q01DX009 (ip), vehicle: saline): 97 % of control
T/C (dose: 0.78 mg/kg/injection, schedule: Q01DX009 (ip), vehicle: saline): 100 % of control

CCOC(=O)c1ccc(NC(=O)Nc2ccc(Cl)cc2)cc1
T/C [7]: 106 % of control
T/C [8]: 106 % of control
T/C [9]: 100 % of control

COc1cccc(C(Cc2ccccc2)NCc2ccccc2)c1 (configuration not stated)
T/C [7]: 106 % of control
T/C [8]: 100 % of control
T/C [9]: 96 % of control

C1CCN(CCC2CCCCN2)CC1 (configuration not stated)
T/C [10]: 106 % of control
T/C [11]: 100 % of control

CC1(C)Oc2c(ccc(O)c2CN2CCOCC2)C2=C1CCCC2
T/C (dose: 64.0 mg/kg/injection, schedule: Q01DX009 (ip), vehicle: Klucel (hydroxypropylcellulose) (HPC)): 96 % of control
T/C (dose: 128.0 mg/kg/injection, schedule: Q01DX009 (ip), vehicle: Klucel (hydroxypropylcellulose) (HPC)): 96 % of control
T/C (dose: 256.0 mg/kg/injection, schedule: Q01DX009 (ip), vehicle: Klucel (hydroxypropylcellulose) (HPC)): 101 % of control

CCCCN1CCNCC1
T/C [10]: 103 % of control
T/C [11]: 103 % of control
T/C [12]: 101 % of control

Cc1c2c(ccc3ccccc32)c[n+]2ccccc12
T/C (dose: 1.56 mg/kg/injection, schedule: Q01DX009 (ip), vehicle: suspension in saline): 98 % of control
T/C (dose: 3.12 mg/kg/injection, schedule: Q01DX009 (ip), vehicle: suspension in saline): 101 % of control
T/C (dose: 6.25 mg/kg/injection, schedule: Q01DX009 (ip), vehicle: suspension in saline): 106 % of control
T/C (dose: 12.5 mg/kg/injection, schedule: Q01DX009 (ip), vehicle: suspension in saline): 103 % of control

CC(N)C(=O)NC(CO)C(=O)O (configuration not stated)
T/C [5]: 109 % of control
T/C [13]: 97 % of control
T/C [14]: 97 % of control

CCN(CC)C1CC(O[C@H]2C[C@](O)(C(C)=O)Cc3c(O)c4c(c(O)c32)C(=O)c2c(OC)cccc2C4=O)OC(C)C1O (some centres not stated)
T/C (dose: 0.25 mg/kg/injection, schedule: Q01DX009 (ip), vehicle: water): 113 % of control
T/C (dose: 0.5 mg/kg/injection, schedule: Q01DX009 (ip), vehicle: water): 119 % of control

CNC(=S)N/N=C1/c2cc(Cl)ccc2-c2c(Cl)cc(Cl)cc21
T/C [1]: 91 % of control

c1cc2n(n1)CCN2
T/C [15]: 102 % of control
T/C (dose: 18.75 mg/kg/injection, schedule: Q01DX009 (ip), vehicle: saline): 116 % of control
T/C [10]: 102 % of control
T/C (dose: 37.5 mg/kg/injection, schedule: Q01DX009 (ip), vehicle: saline): 100 % of control
T/C [11]: 106 % of control
T/C (dose: 75.0 mg/kg/injection, schedule: Q01DX009 (ip), vehicle: saline): 93 % of control
T/C (dose: 150.0 mg/kg/injection, schedule: Q01DX009 (ip), vehicle: saline): 106 % of control
T/C (dose: 200.0 mg/kg/injection, schedule: Q04DX003 (ip), vehicle: saline with Tween-80): 108 % of control
T/C (dose: 400.0 mg/kg/injection, schedule: Q04DX003 (ip), vehicle: saline with Tween-80): 108 % of control

CN(C)c1ccc(/C=C2\C=Cc3ccccc32)cc1
T/C [4]: 92 % of control
T/C [5]: 89 % of control
T/C [13]: 92 % of control

COC1OC(CO)C(O)C(NC(=O)N(C)N=O)C1O (configuration not stated)
T/C [15]: 105 % of control
T/C [11]: 150 % of control
T/C [12]: 176 % of control and 195 % of control
T/C (dose: 200.0 mg/kg/injection, schedule: Q01DX009 (ip), vehicle: saline): 196 % of control and 209 % of control

Cc1c2cccc(Sc3ccccc3)c2c2c3c(cccc13)[S+](c1ccccc1)C2 (configuration not stated)
T/C (dose: 0.78 mg/kg/injection, schedule: Q01DX009 (ip), vehicle: saline with Tween-80): 104 % of control
T/C (dose: 1.56 mg/kg/injection, schedule: Q01DX009 (ip), vehicle: saline with Tween-80): 105 % of control
T/C (dose: 3.13 mg/kg/injection, schedule: Q01DX009 (ip), vehicle: saline with Tween-80): 102 % of control
T/C [1]: 91 % of control and 100 % of control

O=C1c2ccccc2C(=O)N1CC[P+](c1ccccc1)(c1ccccc1)c1ccccc1
T/C (dose: 1.56 mg/kg/injection, schedule: Q01DX009 (ip), vehicle: water): 98 % of control
T/C (dose: 3.13 mg/kg/injection, schedule: Q01DX009 (ip), vehicle: water): 100 % of control
T/C [16]: 109 % of control
T/C [17]: 107 % of control

CCN(CC)CCCC(C)NC(C)CCCN(CC)CC (configuration not stated)
T/C [6]: 101 % of control
T/C [16]: 98 % of control
T/C [18]: 95 % of control
T/C [17]: 100 % of control

CC(=Nc1ccccc1)C1=C(O)C(CC(C)C)NC1=O (configuration not stated)
T/C [4]: 107 % of control
T/C [5]: 103 % of control
T/C [13]: 96 % of control
T/C [14]: 88 % of control

CC(C)C(N)C(=O)Nc1nncs1 (configuration not stated)
T/C [15]: 103 % of control
T/C [10]: 114 % of control
T/C [11]: 108 % of control
T/C [12]: 102 % of control

COc1cc(C(=O)N2CCOCC2)cc(OC)c1OC
T/C [19]: 110 % of control
T/C [20]: 102 % of control
T/C [7]: 92 % of control
T/C [8]: 97 % of control
T/C [9]: 102 % of control

CC1(C)N=C(N)N=C(N)N1c1ccc2ccccc2c1
T/C [2]: 90 % of control
T/C (dose: 22.0 mg/kg/injection, schedule: Q01DX009 (ip), vehicle: Klucel (hydroxypropylcellulose) (HPC)): 87 % of control
T/C [3]: 94 % of control
T/C (dose: 33.0 mg/kg/injection, schedule: Q01DX009 (ip), vehicle: Klucel (hydroxypropylcellulose) (HPC)): 91 % of control
T/C [20]: 119 % of control
T/C [4]: 98 % of control

O=C(NC(C(=O)O)c1ccccc1)OCc1ccccc1 (configuration not stated)
T/C [4]: 97 % of control
T/C [5]: 98 % of control
T/C [13]: 98 % of control

S=C(S)Nc1cccc2ccccc12
T/C [18]: 96 % of control
T/C [19]: 93 % of control
T/C [20]: 103 % of control

CC(=O)CC(C)=NCC(C)N=C(C)CC(C)=O.c1cc[c]([Sn][c]2ccccc2)cc1 (configuration not stated)
T/C (dose: 5.0 mg/kg/injection, schedule: Q04DX003 (ip), vehicle: saline with Tween-80): 119 % of control

C=Cc1c2[n-]c(c1C)/C=c1\[n-]/c(c(C)c1C=C)=C\c1[n-]c(c(CCC(=O)O)c1C)/C=c1\[n-]/c(c(C)c1CCC(=O)O)=C\2.[Co]
T/C [19]: 95 % of control
T/C [20]: 94 % of control
T/C [7]: 92 % of control
T/C [8]: 87 % of control
T/C (dose: 1:1.0 dilution, schedule: Q01DX009 (ip), vehicle: saline): 90 % of control
T/C (dose: 1:2.0 dilution, schedule: Q01DX009 (ip), vehicle: saline): 99 % of control
T/C (dose: 1:4.0 dilution, schedule: Q01DX009 (ip), vehicle: saline): 105 % of control
T/C (dose: 1:8.0 dilution, schedule: Q01DX009 (ip), vehicle: saline): 112 % of control
